In US20240240224A1, “FLUORESCENT D-TYPE AMINO ACID METABOLISM MARKER-BASED METHOD FOR DETECTING ANTIBACTERIAL DRUG SENSITIVITY TEST” (priority 2020, published 2024):
Values after ≈ are worked out from the molar mass of the structure shown.

What was measured:
S. aureus ATCC29213 = experiment: FaAST (FDAA metabolic labeling method); type: cell-based, Staphylococcus aureus; details: unit assumed
Method: (§1) Take the colony to be tested that has been cultured overnight on the plate and fully mix it in normal saline to make a uniform bacterial solution. Dilute it into Cation-Adjusted Mueller Hinton Broth (CAMHB) culture medium to make a bacterial solution with OD600=0.05. • 2. Add 45 μl antibiotic solutions of different concentrations to 96-well plates (see Table 1 for antibiotic concentration gradient settings). • 3. Add 50 μl of the bacterial solution prepared in step 1 to the 96-well plate and mix well. • 4. Add 5 μl of 10 mM Cy5-DAA probe (final concentration 0.15 mM, see FIG. 1 for its structure) into each well, mix well, and cultivate in dark for 2 hours. • 5. Add 200 μl After PBS solution is diluted, the fluorescence intensity of each sample is detected by flow cytometry. The flow detection results are shown in FIG. 4-5, showing the curve of the change of antibiotic concentration gradient and fluorescence intensity. The MIC (minimum inhibitory concentration) can be obtained by referring to this curve.
(§2) Bacteria with antibiotic resistance are shown in bold in the following table.

S. aureus Sa22 = experiment: FaAST (FDAA metabolic labeling method); type: cell-based, Staphylococcus aureus; details: unit assumed
Method: as §1, §2

S. aureus Sa23 = experiment: FaAST (FDAA metabolic labeling method); type: cell-based, Staphylococcus aureus; details: unit assumed
Method: as §1, §2

E. faecalis ATCC29212 = experiment: FaAST (FDAA metabolic labeling method); type: cell-based, Enterococcus faecalis; details: unit assumed
Summary of the method: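 Bacteria at OD600=0.05 in CAMHB exposed to antibiotic concentration gradients with Cy5-DAA probe […], 2 h in the dark. Fluorescence read by flow cytometry after PBS dilution; MIC taken from the curve of fluorescence intensity versus antibiotic concentration.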

E.coli 1146 = experiment: Vitek 2 drug sensitivity test; type: cell-based, Escherichia coli; as to Sensibility: key: S: Drug sensitive; R: Drug resistance
E. coli Ec11 = experiment: BMD susceptibility test; type: cell-based, Escherichia coli; details: unit assumed
P. aeruginosa Pa2 = experiment: BMD susceptibility test; type: cell-based, Pseudomonas aeruginosa; details: unit assumed
P. aeruginosa Pa3 = experiment: FaAST (FDAA metabolic labeling); type: cell-based, Pseudomonas aeruginosa; details: unit assumed
Summary of the method: (§3)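 Bacteria diluted to OD600=0.05 in CAMHB were exposed to an antibiotic concentration series with Cy5-DAA probe […] for 2 h in the dark. Per-sample fluorescence was read by flow cytometry after PBS dilution. MIC was taken from the antibiotic concentration–fluorescence curve.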

Pa ATCC 27853 = experiment: FaAST (FDAA metabolic labeling); type: cell-based, Pseudomonas aeruginosa; details: unit assumed
Summary of the method: as §3

A. baumannii Ab16 = experiment: BMD susceptibility test; type: cell-based, Acinetobacter baumannii; details: unit assumed
[1] = tested on: alveolar lavage fluid sample 0130, A. baumannii; experiment: BMD susceptibility test of patient alveolar lavage fluid; type: cell-based, Acinetobacter baumannii; details: unit assumed
Description: (§4) The results of antimicrobial susceptibility test of alveolar lavage fluid of seven patients using FDAA and BMD methods are shown in the following table. The drug-resistant bacteria are shown in bold.

[2] = tested on: alveolar lavage fluid sample 0206, A. baumannii; experiment: as above; type: cell-based, Acinetobacter baumannii; details: unit assumed
Description: as §4

[3] = tested on: alveolar lavage fluid sample 0219, A. baumannii; experiment: as above; type: cell-based, Acinetobacter baumannii; details: unit assumed
Description: as §4

[4] = tested on: alveolar lavage fluid sample 0130, A. baumannii; experiment: FaAST (FDAA) susceptibility test of patient alveolar lavage fluid; type: cell-based, Acinetobacter baumannii; details: unit assumed
Method: (§5) With reference to the flow chart of the rapid detection method of antimicrobial susceptibility test based on FDAA metabolic markers shown in FIG. 3, FDAA is used for the detection of antimicrobial susceptibility test of alveolar lavage fluid. The specific experimental steps are as follows: • 1. Mix bronchoalveolar lavage fluid (BALF, 10 ml) of patients with hospital acquired pneumonia with cation regulated broth medium (CAMHB, 10 ml) of twice the concentration to prepare the bacterial fluid to be tested. • 2. Add 45 μl antibiotic solutions of different concentrations to the 96-well plate separately (see Table 1 for antibiotic concentration gradient settings). • 3. Add 50 μl of the bacterial solution prepared in step 1 to the 96-well plate and mix well. • 4. Add 5 μl of 10 mM Cy5-DAA probe (final concentration 0.15 mM, see FIG. 1 for its structure) into each well, mix well, and then cultivate in dark for 2 hours. • 5. Add 200 μl PBS solution for dilution, and then use flow cytometry to detect the fluorescence intensity of each sample.
as §4

[5] = tested on: alveolar lavage fluid sample 0204, A. baumannii; experiment: as above; type: cell-based, Acinetobacter baumannii; details: unit assumed
Method: as §5, §4

[6] = tested on: alveolar lavage fluid sample 0206, A. baumannii; experiment: as above; type: cell-based, Acinetobacter baumannii; details: unit assumed
Method: as §5, §4

[7] = tested on: alveolar lavage fluid sample 0219, A. baumannii; experiment: as above; type: cell-based, Acinetobacter baumannii; details: unit assumed
Method: as §5, §4

[8] = tested on: alveolar lavage fluid sample 0203, K. pneumoniae; experiment: BMD susceptibility test of patient alveolar lavage fluid; type: cell-based, Klebsiella pneumoniae; details: unit assumed
Description: as §4

[9] = tested on: alveolar lavage fluid sample 0226, K. pneumoniae; experiment: as above; type: cell-based, Klebsiella pneumoniae; details: unit assumed
Description: as §4

[10] = tested on: Pseudomonas aeruginosa PAE2; experiment: VITEK drug sensitivity test; type: cell-based; details: unit assumed
[11] = tested on: Acinetobacter baumannii ABA19; experiment: VITEK drug sensitivity test; type: cell-based; details: unit assumed
[12] = tested on: Enterococcus faecium EFM26; experiment: VITEK drug sensitivity test; type: cell-based; details: unit assumed
[13] = tested on: Acinetobacter baumannii ABA16; experiment: VITEK drug sensitivity test; type: cell-based; details: unit assumed

C[C@H]1COc2c(N3CCN(C)CC3)c(F)cc3c(=O)c(C(=O)O)cn1c23 [Levofloxacin, levofloxacin]
FaAST (MIC) (S. aureus ATCC29213): 0.5 µg/mL | FaAST (MIC) (S. aureus Sa22): 32 µg/mL | FaAST (MIC) (S. aureus Sa23): 1 µg/mL | FaAST (MIC) (E. faecalis ATCC29212): 1 µg/mL | Sensibility (E.coli 1146): R | MIC (E.coli 1146; Escherichia coli): ≥ 8 µg/mL | BMD (MIC) (E. coli Ec11): ≤ 0.25 µg/mL | BMD (MIC) (P. aeruginosa Pa2): 0.5 µg/mL | FaAST (MIC) (P. aeruginosa Pa3): 0.5 µg/mL | FaAST (MIC) (Pa ATCC 27853): 0.5 µg/mL | BMD (MIC) (A. baumannii Ab16): 16 µg/mL | BMD (MIC) [1]: 64 µg/mL | BMD (MIC) [2]: 32 µg/mL | BMD (MIC) [3]: 32 µg/mL | FaAST (MIC) [4]: 64 µg/mL | FaAST (MIC) [5]: 0.25 µg/mL | FaAST (MIC) [6]: 64 µg/mL | FaAST (MIC) [7]: 64 µg/mL | BMD (MIC) [8]: 0.25 µg/mL | BMD (MIC) [9]: 1 µg/mL | MIC, VITEK [10]: 0.5 µg/mL (≈ 1.38 µM) | MIC, VITEK [11]: ≤ 0.25 µg/mL | MIC, VITEK [12]: ≥ 256 µg/mL | MIC, VITEK [13]: 16 µg/mL (≈ 44.3 µM)
